Measured values reported in patent US9879036B2, “Mitochondrial aldehyde dehydrogenase-2 binding compounds and methods of use thereof” (Aviv Therapeutics, Inc., priority 2014, dated 2018).
Changes are numbered by the printed parent chain.

Columns and labels:
Assay type in all cases: biochemical
ALDH2 = target: T1, ALDH2 (Homo sapiens, UniProt P05091); assay: ALDH2 activity with 20 μM of the compound (Table 3); settings: 20 μM compound
T1 construct: His-tag (N); made in house; host or cells: E. coli BL21
T1 sequence (P05091 18-517): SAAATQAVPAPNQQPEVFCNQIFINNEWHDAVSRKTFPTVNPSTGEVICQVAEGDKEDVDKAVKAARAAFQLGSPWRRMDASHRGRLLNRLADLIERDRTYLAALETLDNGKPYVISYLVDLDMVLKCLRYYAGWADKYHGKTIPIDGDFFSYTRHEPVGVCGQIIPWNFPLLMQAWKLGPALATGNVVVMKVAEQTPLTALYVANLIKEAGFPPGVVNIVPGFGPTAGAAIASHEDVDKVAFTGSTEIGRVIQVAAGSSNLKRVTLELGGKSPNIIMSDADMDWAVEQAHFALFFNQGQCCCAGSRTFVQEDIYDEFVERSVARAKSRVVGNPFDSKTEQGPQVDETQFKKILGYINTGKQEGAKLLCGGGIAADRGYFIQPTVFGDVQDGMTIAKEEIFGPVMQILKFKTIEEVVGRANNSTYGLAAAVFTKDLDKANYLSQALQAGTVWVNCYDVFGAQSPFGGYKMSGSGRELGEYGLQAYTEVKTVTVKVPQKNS
Method: (§1) ALDH2 catalyzes the oxidative reaction of substrate acetaldehyde to acetic acid using NAD^+ as a cofactor. Enzymatic activity, or catalytic rate, of aldehyde dehydrogenase (ALDH2) are measured spectrophotometrically at UV wavelength λ340 nm by the accumulation of reduced product NADH derived from NAD^+. Absorbance at λ340 nm is quantitatively proportional to the amount of NADH being produced over time (6.22 O.D. unit=1 mmol of NADH, measured in a 1-cm width standard cuvette). This method is well-established in the literature [e.g. Rex et al., Alcohol Clin. Exp. Res. 9, 147 (1985)].
as §1, with “can be” for “are”
(§2) ALDH2 catalyzes the oxidative reaction of substrate acetaldehyde to acetic acid using NAD^+ as a cofactor. Enzymatic activity, or catalytic rate, of aldehyde dehydrogenase (ALDH2) can be measured spectrophotometrically at UV wavelength λ340 nm by the accumulation of reduced product NADH derived from NAD^+. Because compounds of formula (I) are considered to be agonists or “activators” of ALDH2 the enzymatic activity measured will exceed 100% of the baseline enzymatic activity of the enzyme in its normal activation state. As the concentration of the compounds of formula (I) decreases from 20 micromolar to 0.16 micromolar in the presence of ALDH, a decrease in the activation of enzymatic activity is observed for the wild-type ALDH2*1/*1 and the heterozygous form ALDH2*1/*2.

ALDH2*1/*1 = target: T2, ALDH2*1/*1 (Homo sapiens, UniProt P05091); assay: ALDH2 enzymatic activity, NADH accumulation at 340 nm, acetaldehyde substrate, wild type; settings: relative to baseline enzymatic activity (100%); for activity at 2.5 µM: 2.5 μM compound; for activity at 5 µM: 5 μM compound; for activity at 10 µM: 10 μM compound; for activity at 20 µM: 20 μM compound
T2 construct: His-tag (N); made in house; host or cells: E. coli BL21 (pTrcHis vector)
T2 sequence (P05091 18-517): T1 sequence (P05091 18-517)
Method: as §1
as §1, with “can be” for “are”
(§3) Cloning, expression and purification of human ALDH2 wild type and ALDH2*2 recombinant mutant enzymes: Full-length wild type human ALDH2 cDNA was purchased from ATCC (No. MGC-1806. GenBank ID: BC002967). The 18-amino acid mitochondria transport signal sequence was removed by PCR and cloned into the NheI/HindIII sites of a His-tag vector, pTrcHis, using standard molecular cloning techniques. The human ALDH2* cDNA construct containing the Asian E487K mutation was obtained by site-directed mutagenesis to create the E487K substitution of the wild type ALDH2. Both human clones were designed to express a recombinant protein with the His-tag at the N-terminus of the protein. For the co-expression experiments of human ALDH2 wild type and ALDH2*2 heterotetramers, a wild type ALDH2 gene and a ALDH2 E487K gene were inserted separately into the two multiple cloning sites of pETDuet-1 vector. (Novagen, CA, USA). All the vectors were transformed into BL21 E. coli host cells and subjected to 0.5 mM IPTG induction for protein expression at 30° C. Purifications of the recombinant proteins by affinity nickel columns (HisTrap, GE Healthy Science, USA) were carried out using standard protocols according to manufacturer's instructions (Novagen, USA).
as §2

ALDH2*1/*2 = target: T3, ALDH2*1/*2 (Homo sapiens, UniProt P05091, E504K); assay: ALDH2 enzymatic activity, NADH accumulation at 340 nm, acetaldehyde substrate, heterozygous form; settings: relative to baseline enzymatic activity (100%); for activity at 2.5 µM: 2.5 μM compound; for activity at 5 µM: 5 μM compound; for activity at 10 µM: 10 μM compound; for activity at 20 µM: 20 μM compound
T3 construct: His-tag; made in house; host or cells: E. coli BL21 (pETDuet-1 co-expression)
T3 sequence (P05091 18-517): T1 sequence (P05091 18-517)
T3 sequence (P05091 18-517 E504K): T1 sequence (P05091 18-517) with E487K
Method: as §1
as §1, with “can be” for “are”
as §3, §2

activity at 20 µM (ALDH2) [%] | activity at 2.5 µM (ALDH2*1/*1) [%] | activity at 5 µM (ALDH2*1/*1) [%] | activity at 10 µM (ALDH2*1/*1) [%] | activity at 20 µM (ALDH2*1/*1) [%] | activity at 2.5 µM (ALDH2*1/*2) [%] | activity at 5 µM (ALDH2*1/*2) [%] | activity at 10 µM (ALDH2*1/*2) [%] | activity at 20 µM (ALDH2*1/*2) [%] | Compound
150 to 250 | 119 | 131 | 171 | 187 | 127 | 145 | 172 | 197 | COc1ccc(CNC(=O)c2cc(-c3cccc(F)c3CO)cnc2OCC2CC2)cc1F [AC18]
> 250 | 175 | 242 | 288 | 412 | 220 | 294 | 383 | 453 | COc1ccc(CNC(=O)c2cc(-c3ccccc3CO)cnc2OCC2CC2)cc1F [AC1, 2-(cyclopropylmethoxy)-N-(3-fluoro-4-methoxybenzyl)-5-(2-(hydroxymethyl)phenyl)nicotinamide]
> 250 | 215 | 275 | 328 | 443 | 256 | 338 | 408 | 471 | COc1ccc(CNC(=O)c2cc(-c3ccccc3CO)ccc2OCC2CC2)cc1F [AC2, 4-(cyclopropylmethoxy)-N-(3-fluoro-4-methoxybenzyl)-2′-(hydroxymethyl)-[1,1′-biphenyl]-3-carboxamide]
> 250 | 172 | 263 | 313 | 437 | 160 | 194 | 253 | 143 | COc1ccc(CNC(=O)c2cc(-c3c(F)cccc3CO)ccc2OCC2CC2)cc1F [AC22]
> 250 | 170 | 238 | 308 | 403 | 157 | 218 | 255 | 93 | COc1ccc(CNC(=O)c2cc(-c3cc(F)ccc3CO)cnc2OCC2CC2)cc1F [AC20]
150 to 250 | 150 | 195 | 220 | 319 | 180 | 245 | 310 | 376 | COc1ccc(CNC(=O)c2cc(-c3ccccc3CO)ncc2OCC2CC2)cc1F [AC3]
> 250 | 175 | 248 | 321 | 428 | 149 | 234 | 269 | 216 | COc1ccc(CNC(=O)c2cc(-c3cscc3CO)cnc2OCC2CC2)cc1F [AC24]
> 250 | 210 | 262 | 291 | 375 | 187 | 252 | 263 | 196 | COc1ccc(CNC(=O)c2cc(-c3ccc(F)cc3CO)ccc2OCC2CC2)cc1F [AC23]
> 250 | 218 | 276 | 354 | 376 | 224 | 287 | 317 | 402 | COc1ccc(CNC(=O)c2cc(-c3ccncc3CO)ccc2OCC2CC2)cc1F [AC9]
150 to 250 | 123 | 135 | 169 | 211 | 125 | 158 | 185 | 248 | COc1ccc(CNC(=O)c2cc(-c3cccnc3CO)cnc2OCC2CC2)cc1F [AC11]
> 250 | 172 | 238 | 346 | 414 | 239 | 321 | 388 | 531 | COc1ccc(CNC(=O)c2cc(-c3cnccc3CO)cnc2OCC2CC2)cc1F [AC10]
> 250 | 266 | 330 | 352 | 487 | 318 | 382 | 428 | 504 | COc1ccc(CNC(=O)c2cc(-c3cnccc3CO)ccc2OCC2CC2)cc1F [AC5]
> 250 | 204 | 280 | 300 | 363 | 266 | 338 | 390 | 423 | COc1ccc(CNC(=O)c2cc(-c3ccc(F)cc3CO)cnc2OCC2CC2)cc1F [AC4]
